What was measured:
βARK [1] = molecular target: T1, βARK (Homo sapiens, UniProt P25098, A211R/K465R/R422H); assay: βARK inhibition AlphaScreen assay (phosphorylation of biotinylated CCR5 peptide); assay type: biochemical; conditions: assay validation, read-out: apparent Km (ATP dependence)
T1 sequence (P25098 1-689 A211R/R422H/K465R): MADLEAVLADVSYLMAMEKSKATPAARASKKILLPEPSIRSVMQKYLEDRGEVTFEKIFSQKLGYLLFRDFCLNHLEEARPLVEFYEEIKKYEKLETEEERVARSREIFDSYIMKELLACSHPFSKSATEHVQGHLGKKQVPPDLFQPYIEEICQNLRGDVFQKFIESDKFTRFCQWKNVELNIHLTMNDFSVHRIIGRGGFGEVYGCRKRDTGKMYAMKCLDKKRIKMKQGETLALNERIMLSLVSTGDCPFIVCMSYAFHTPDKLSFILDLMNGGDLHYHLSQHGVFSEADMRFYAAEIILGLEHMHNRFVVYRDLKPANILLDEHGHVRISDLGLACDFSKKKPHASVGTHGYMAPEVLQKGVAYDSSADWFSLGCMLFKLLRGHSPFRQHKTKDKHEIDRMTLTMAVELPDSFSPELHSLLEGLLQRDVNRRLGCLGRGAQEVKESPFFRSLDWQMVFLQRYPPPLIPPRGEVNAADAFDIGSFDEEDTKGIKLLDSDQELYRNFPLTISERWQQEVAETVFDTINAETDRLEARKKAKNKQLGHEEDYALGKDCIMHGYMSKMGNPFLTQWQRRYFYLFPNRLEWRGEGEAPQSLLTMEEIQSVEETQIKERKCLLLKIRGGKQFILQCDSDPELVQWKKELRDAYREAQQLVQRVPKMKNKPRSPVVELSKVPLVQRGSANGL
From the text: (§1) In the βARK inhibition experiment biotinylated hunian CC ehemokine receptor 5, herein abbreviated CCR5 peptide (Seq. ID No. 1) is phosphorylated by the kinase. The phosphorylated serine is recognized by a specific antibody which, in turn, is bound to protein A coupled acceptor beads. The biotinylated N-terminus of the CCR5 peptide is coupled to streptavidin-coated donor heads. Thus, in the absence of inhibitors an AlphaScreen signal is detected that decreases when the enzymatic activity in inhibited. […]
(§2) Percent-inhibition values are calculated as: […]

βARK [2] = molecular target: T2, βARK (Homo sapiens, UniProt P25098); assay: as above; assay type: biochemical; conditions: 0.5 μM βARK, 100 nM CCR5 peptide, 10 μM ATP, 120 min room temperature, read-out: IC50 (dose-response curve)
T2 sequence (P25098 1-689 A211R/R422H/K465R): T1 sequence (P25098 1-689 A211R/R422H/K465R)
From the text: as §1, §2

Nc1ncnc2c1ncn2[C@@H]1O[C@H](COP(=O)(O)OP(=O)(O)OP(=O)(O)O)[C@@H](O)[C@H]1O [ATP]
Km (βARK [1]): 4 µM

heparin
IC50 (βARK [2]): 50 nM

Reference: patent publication US7279286B2, “High-throughput-assay with high sensitivity for measuring of the activity of β-adrenergic receptor kinase and for determining the impact of test substances on such activity” (Sanofi-Aventis Deutschland GmbH, priority 2003, dated 2007)
